Laboratory results: ChEMBL document CHEMBL1201862, “PubChem BioAssay data set” (2004)
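Cultured in 96-well plates, cells were exposed to test compound for 48 hours across five concentrations. Abbreviation: GI50, concentration required for 50% inhibition of growth.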 Activity calls are given as the source filed them. Cut-off read from the data, not from the text of the source: active = GI50 up to about 1.1 µM and inactive = higher.

Assays:
Experiment in all cases: NCI tumour cell line growth inhibition, 48 h
UO-31 = tested on: UO-31
NCI-H23 = tested on: NCI-H23
SN12C = tested on: SN12C
OVCAR-5 = tested on: OVCAR-5
SF-295 = tested on: SF-295
A498 = tested on: A498
KM12 = tested on: KM12
CCRF-CEM = tested on: CCRF-CEM
HCT-116 = tested on: HCT-116
786-0 = tested on: 786-0
OVCAR-4 = tested on: OVCAR-4
SK-OV-3 = tested on: SK-OV-3
COLO 205 = tested on: COLO 205
HOP-92 = tested on: HOP-92
NCI-H522 = tested on: NCI-H522
SK-MEL-5 = tested on: SK-MEL-5
HCT-15 = tested on: HCT-15
HCC 2998 = tested on: HCC 2998

Compound | GI50 (UO-31) | GI50 (NCI-H23) | GI50 (SN12C) | GI50 (OVCAR-5) | GI50 (SF-295) | GI50 (A498) | GI50 (KM12) | GI50 (CCRF-CEM) | GI50 (HCT-116) | GI50 (786-0) | GI50 (OVCAR-4) | GI50 (SK-OV-3) | GI50 (COLO 205) | GI50 (HOP-92) | GI50 (NCI-H522) | GI50 (SK-MEL-5) | GI50 (HCT-15) | GI50 (HCC 2998)
CCCCCCCCCCCCCCC1OC(=O)c2ccccc21 (configuration not stated) | > 100 µM (inactive) | 43.8 µM (inactive) | 24.5 µM (inactive) | 31.7 µM (inactive) | > 100 µM (inactive) | > 100 µM (inactive) | 39.1 µM (inactive) | 32.7 µM (inactive) | 34.6 µM (inactive) | > 100 µM (inactive) | 66.7 µM (inactive) | > 100 µM (inactive) |  |  |  |  |  | 
COc1ccccc1CCc1cc(OC)c(OC)c(OC)c1 | 22.9 µM (inactive) |  | 61.9 µM (inactive) | 1.56 µM (inactive) | 51.4 µM (inactive) | 57.9 µM (inactive) | 38.5 µM (inactive) | 31.8 µM (inactive) | 37.1 µM (inactive) | 74.3 µM (inactive) | 40.6 µM (inactive) |  | 42.2 µM (inactive) | 26.8 µM (inactive) | 26.8 µM (inactive) | 19.5 µM (inactive) | 36.1 µM | 
CC(=O)CN(Cc1cc(C)c2c(c1)c1ccccc1n2Cc1ccccc1)S(=O)(=O)c1ccc(C)cc1 | 57.7 µM (inactive) | > 100 µM (inactive) |  |  | > 100 µM (inactive) |  | > 100 µM (inactive) | > 100 µM (inactive) | > 100 µM (inactive) | > 100 µM (inactive) | > 100 µM (inactive) | > 100 µM (inactive) | > 100 µM (inactive) | > 100 µM (inactive) | > 100 µM (inactive) | > 100 µM (inactive) |  | > 100 µM (inactive)
COCCOCOc1ccc(OCOCCOC)c2c1C(=O)c1ccccc1C2=O | 28.7 µM (inactive) | 74.1 µM (inactive) | 51.4 µM (inactive) | > 100 µM (inactive) | > 100 µM (inactive) | 68.7 µM (inactive) | > 75.9 µM (inactive) | 27 µM (inactive) | 29.4 µM (inactive) | 92.9 µM (inactive) | 59.4 µM (inactive) | > 100 µM (inactive) | 54.1 µM (inactive) | > 79.6 µM (inactive) |  | 51.8 µM (inactive) | 30.3 µM | 61.7 µM (inactive)
COc1cccc(N2C(=O)C3C4C=C5c6ccccc6N(c6ccccc6)C5(C3C2=O)[C@H]2C(=O)N(c3cccc(OC)c3)C(=O)[C@@H]42)c1 (some centres not stated) | > 100 µM (inactive) | > 100 µM (inactive) | > 100 µM (inactive) | > 100 µM (inactive) | > 100 µM (inactive) | > 100 µM (inactive) | > 100 µM (inactive) | > 100 µM (inactive) | > 100 µM (inactive) | > 100 µM (inactive) | > 100 µM (inactive) | > 100 µM (inactive) | > 100 µM (inactive) | > 100 µM (inactive) |  | > 100 µM (inactive) | > 100 µM | 
CC(=O)OCCOCNC(=S)N/N=C(\C)c1cccs1 | > 100 µM (inactive) | > 100 µM (inactive) | > 100 µM (inactive) | > 100 µM (inactive) | > 100 µM (inactive) | > 100 µM (inactive) | > 100 µM (inactive) | 61.8 µM (inactive) | > 100 µM (inactive) | > 100 µM (inactive) | > 100 µM (inactive) | > 100 µM (inactive) | > 100 µM (inactive) |  | > 100 µM (inactive) | > 100 µM (inactive) | > 100 µM | > 100 µM (inactive)
COc1ccc(-c2ccccc2)c2[nH]c3c(c12)CCNC3=O | > 100 µM (inactive) | > 100 µM (inactive) | > 100 µM (inactive) | > 100 µM (inactive) | > 100 µM (inactive) | > 100 µM (inactive) | > 100 µM (inactive) | > 100 µM (inactive) | > 100 µM (inactive) | > 100 µM (inactive) | > 100 µM (inactive) |  | > 100 µM (inactive) | > 100 µM (inactive) | > 100 µM (inactive) | > 100 µM (inactive) | > 100 µM | > 100 µM (inactive)
Cc1cc(Cl)ccc1N1C(=O)C(=O)C(c2nc3ccccc3s2)C(=O)C1=O | > 100 µM (inactive) | > 100 µM (inactive) | > 100 µM (inactive) | > 100 µM (inactive) | > 100 µM (inactive) | > 100 µM (inactive) | > 100 µM (inactive) | > 100 µM (inactive) | > 100 µM (inactive) | > 100 µM (inactive) | > 100 µM (inactive) | > 100 µM (inactive) | > 100 µM (inactive) | > 100 µM (inactive) | > 100 µM (inactive) | > 100 µM (inactive) | > 100 µM | 
COC(=O)CCC(=O)N1C/C(=C\c2ccccc2)C(=O)/C(=C/c2ccccc2)C1 | 2.04 µM (inactive) | 2.14 µM (inactive) | 1.86 µM (inactive) | 2.7 µM (inactive) | 2.31 µM (inactive) | 2.24 µM (inactive) | 0.807 µM (active) | 2.74 µM (inactive) | 0.41 µM (active) | 2.03 µM (inactive) | 2.03 µM (inactive) | 4.16 µM (inactive) | 2.06 µM (inactive) | 6.03 µM (inactive) |  | 2.2 µM (inactive) | 0.432 µM | 1.67 µM (inactive)
